Laboratory results reported in PMC10065799, “High-throughput profiling of sequence recognition by tyrosine kinases and SH2 domains using bacterial peptide display” (eLife, 2023).
Square brackets hold non-standard residues; d marks the D form. pY = N[C@@H](Cc1ccc(OP(=O)(O)O)cc1)C(=O)O

What follows are substances tested against T1, c-Abl kinase domain (Mus musculus, UniProt P00520) (assay: pTyr-Var library bacterial peptide display kinase screen (enrichment scores)). Conditions: fig5-data2, sheet "Abl"; Screen for the variant/reference peptide pair, pTyr-Var library.
T1 sequence (P00520 242-493 limits assumed): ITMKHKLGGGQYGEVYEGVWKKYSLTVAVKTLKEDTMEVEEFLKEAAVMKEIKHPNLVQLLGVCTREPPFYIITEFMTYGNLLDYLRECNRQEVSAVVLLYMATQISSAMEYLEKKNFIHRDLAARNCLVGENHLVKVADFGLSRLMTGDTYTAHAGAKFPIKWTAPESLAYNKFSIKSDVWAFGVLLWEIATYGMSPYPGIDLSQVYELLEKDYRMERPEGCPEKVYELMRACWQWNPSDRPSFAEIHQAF
Assay type: biochemical

Substance | Screen
AVEDQYFRVDC [FHL1_Y207_C209R_YF] | -2.172
DLAHKYHGGGG [HBB_Y146_A141D] | -0.5192
DTLLEYLENPK [CYCS_Y68_M66L] | -1.313
GDAMLYFPSVS [GPR143_Y177_A173D_YF] | 0.9829
GNLLIYTKFGK [HGD_Y166_E168K] | 0.592
GRTGHYLCNAC [GATA1_Y223_D218G] | 0.2005
NDQANYLLNTD [ADA_Y290_S291L] | -1.65
NSFKFYMSDDI [ATRX_Y204_C200S_YF] | 1.883
PVQAAYQKLVA [HBB_Y131_V134L] | -1.01
QKPLGYFRVNL [GALE_Y104_D103G_YF] | -1.351
SLMNQYVNKEF [RAB7A_Y28_K32E] | 1.901
TDHLQYFDSNK [ARAP1_Y359_R358Q] | 1.336
VCHELYNAIRD [PBRM1_Y54_T56A] | -0.5103
VMAALYGRLFE [BTD_Y536_T532M_YF] | -0.5848

More lines, now with the values ahead:

Screen | Substance
-0.6801 | AGQEGYDRLRP [RAC1_Y64_D63G]
-1.258 | ALPGEYIPTVF [RAC1_Y32_F28L]
0.5925 | APAHKYHGGGG [HBD_Y146_L142P]
0.869 | ARVANYHRDGP [CAT_Y386_Q387H]
-1.856 | Ac-QSLEKS[pY]ELLDGG-NH2 [ACTB_Y240_P243L]
0.1591 | DLGIQYKVLKP [CTNNA1_Y177_A179V]
0.05093 | DLSEVYKPCRK [CCDC93_Y176_R179C]
1.576 | EKQLLYLENKT [FRK_Y132_S133L]
0.8508 | ENFSEYQEISV [HEMGN_Y150_A154S]
1.184 | FDNSVYQKTTE [LDLR_Y828_P826S]
1.235 | FRTGHYLCNAC [GATA1_Y223_D218Y_YF]
-1.338 | GRSTFYWPSPR [GAGE12J_Y10_R13S_YF]
-1.003 | KFFRVYQGQQP [MUTYH_Y494_V490F]
-1.592 | LESETYRRLLD [KRT12_Y429_I426S]
0.7733 | PMQMPYDSRWE [PDGFRA_Y582_L580M]
-1.987 | PQGVSYIFTID [DCX_Y103_R102S_YF]
1.12 | REGAKYVSHDA [ASS1_Y113_G117D]
0.4242 | SHSMRYFSTAV [HLA-C_Y31_D33S]

Same assay, conditions: sheet "Abl"; effect of variant peptide relative to its reference peptide in pTyr-Var library screen (enrichment)

Substance | Screen
ESMQSYDLDFP [UNC13B_Y243_D238E_YF] | 0.2086
FNDSAYNQQLI [ZPLD1_Y198_T197A_YF] | 1.136
KACKHYLTKRT [ZBTB5_Y118_T121K] | -3.546
KKFPDYIQIAR [SGMS2_Y59_M64R_YF] | 1.322
KNSSIYVVANI [VNN1_Y134_N131S] | 4.539
LTDLRYKVSGP [TTN_Y22641_L22646P] | -1.764
TFGNLYGSRKQ [YIPF7_Y59_A54T_YF] | -3.299
TTKGAYSLSVR [YES1_Y194_I198V] | 2.19
TVLWLYTGTRP [UGT1A1_Y337_R336L] | 0.619
TVLWQYTGTRP [UGT1A1_Y337_R336Q] | 0.7115
VHKKGYNKLNQ [ZNF676_Y98_E96K] | 1.586

Other lines, results leading:

Screen | Substance
-0.666 | ETCLAYMEKRI [TEKT1_Y118_R119M]
-0.1763 | KPGLIYNKVNP [SPRED3_Y72_V71I]
0.8616 | KSVEEYANCHL [TF_Y593_P589S]
2.42 | MKGEFYRFLAE [YWHAG_Y131_D129E_YF]
2.994 | TLLPDYEDEEE [ZNF830_Y159_S154T]
-3.327 | VLALWYFFLTN [ZDHHC23_Y127_H132N_YF]

The substances below were run against c-Src kinase domain (Homo sapiens, UniProt P12931) in the same assay as above. Conditions: sheet "Src"; effect of the variant peptide relative to its reference peptide in the pTyr-Var library screen.
Assay type: biochemical

Substance | Screen
GNLLIYTKFGK [HGD_Y166_E168K] | -1.556
KLADIYQAELR [GFAP_Y116_V115I] | 1.355
LITTLYSGFLG [KCNQ1_Y267_I268S] | 0.982
LNECHYGALIG [BPGM_Y92_R90C] | 2.509
QMVRMYASSFM [AVPR2_Y124_G122R_YF] | -2.32
RNLLIYTEFGK [HGD_Y166_G161R] | -0.2684
RRNEIYEIKVD [LGR5_Y387_H383R] | -0.9028
SNKLTYGTVVF [ACOX1_Y275_M278V] | 0.3111
VMAALYGRLFE [BTD_Y536_T532M_YF] | 0.294

Same assay, conditions: sheet "Src"; variant peptide versus its reference peptide in the pTyr-Var library screen

Substance | Screen
ACCLLYHGDVV [TUBA4A_Y319_R320H] | -0.1128
DDEVFYSPLSL [OTC_Y317_R320L] | 2.664
DWQQEYVLNES [TGM1_Y267_R264Q] | 1.018
DWRQEYVLNEP [TGM1_Y267_S272P] | 0.4859
EDKFMYSEFPQ [PTEN_Y240_F241S] | 0.2043
ETELPYQELQG [TYROBP_Y91_S89L] | 0.7128
GPQSLYNGLVA [UCP2_Y79_R76Q] | 1.82
GVLDIYGFDIL [MYO1A_Y382_E385D] | 0.6089
HNELFYEAAEH [VANGL1_Y345_E347A_YF] | 1.947
LNPLFYSLRNK [OR5R1_Y290_I289F] | -4.245
LNPLVYTLRNA [OR4C12_Y285_V283L] | 0.901
MSRDVYSTDCF [NTRK2_Y702_Y706C_YF] | -0.1963
PFTDPYFDFEI [ZC3H18_Y371_A368T_YF] | 0.4384
PLDGEYFSLQI [TP53_Y327_T329S] | 0.4244
PLDGEYFTHQI [TP53_Y327_L330H] | -1.246
PLDGEYFTLQV [TP53_Y327_I332V] | -0.8668
PNRILYGDFWQ [MYH7_Y715_R719W] | -0.3786
PRNLIYFGEHP [TRPV6_Y201_C197R] | -3.508
RRIHSYRGRLW [VHL_Y112_H115R] | -2.396
SSQTIYQRVEG [TFR2_Y23_V22I] | 1.445
TFGNLYGSRKQ [YIPF7_Y59_A54T_YF] | 0.7296
VFFDLYGGEKF [PTPN11_Y66_D61V_YF] | -0.4607

What follows are substances tested on Fer kinase domain in the same assay as above. Conditions: sheet "Fer"; value of the variant peptide against its reference peptide in the pTyr-Var library screen with Fer.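 Further: log2 fold change in enrichment of variant over reference.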
Assay type: biochemical, mouse

Substance | Screen
DDEVFYSPLSL [OTC_Y317_R320L] | 2.858
KLPDAYEPLIL [G6PD_Y437_R439P] | 1.978

Second part, the substance after the results:

Screen | Substance
2.326 | EGNEQYEGFCV [GRIA3_Y451_R450Q_YF]
-1.638 | GHLFAYNWISI [BEST1_Y227_D228N_YF]
-0.4996 | KGNMFYENSFA [EGFR_Y113_R108K_YF]
0.5529 | LTMAPYSSVSV [FAM81A_Y24_L29V]
-1.406 | RREWFYEVIIA [BACE1_Y260_V265A_YF]
0.3514 | VASMFYTLVIP [OR8K3_Y277_I275M]

Same assay, conditions: sheet "Fer"; variant peptide relative to its reference peptide, pTyr-Var library screen enrichment

Substance | Screen
ACCLLYHGDVV [TUBA4A_Y319_R320H] | 1.239
HNELFYEAAEH [VANGL1_Y345_E347A_YF] | 1.287

The substances below were run on EPHB1 kinase domain in the same assay as above. Conditions: sheet "EPHB1"; variant seq vs reference seq; bacterial peptide display enrichment.
Assay type: biochemical, human

Substance | Screen (variant relative to reference peptide, measured in the pTyr-Var library screen)
CLGNQYVNVMN [SLC3A1_Y461_R456C] | -0.4562
KKFPDYIQIAR [SGMS2_Y59_M64R_YF] | -0.1665
PLDGEYFTLQV [TP53_Y327_I332V] | -0.1216
RRIHSYRGRLW [VHL_Y112_H115R] | -0.8094
SSQTIYQRVEG [TFR2_Y23_V22I] | 1.306
VMLENYSNLLS [ZFP69_Y109_V113L] | 0.4122

Same assay, conditions: sheet EPHB1; effect of the variant peptide relative to its reference peptide in the pTyr-Var library screen (enrichment scores)

Substance | Screen
GNLLIYTKFGK [HGD_Y166_E168K] | -0.9666
LIFTNYEVGKD [GSTP1_Y112_A114V_YF] | 1.043
LNPLFYSLRNK [OR5R1_Y290_I289F] | -2.165
RNLLIYTEFGK [HGD_Y166_G161R] | 0.6934

Results, then the substance that gave them:

Screen | Substance
0.2649 | DNLSNYVFQGQ [GRIN2A_Y978_N976S]
0.04896 | ENFSEYQEISV [HEMGN_Y150_A154S]
0.6712 | WCSNDYLGMSQ [ALAS2_Y199_R204Q]
